For 39 molecules, IC50 results are on record in patent US7803801B2, “Aminopyridine compounds having Syk inhibitory activity” (Japan Tobacco, Inc., priority 2005, dated 2010).

As a reminder, the IC50 is the concentration that inhibits the measured activity by half.

Counter-ions that a name gives are not always drawn. Like-named read-outs stand apart in the source and are kept apart here.

For assay [1], the target named is GST-Syk Full Protein (human) (Homo sapiens, UniProt P43405). Nature of the assay: Syk kinase inhibition test (HTRF method). Format: biochemical. The method in brief:
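HTRF read-out: after EDTA termination and 1 h with XL665-streptavidin and Eu-anti-phosphotyrosine, the 665/620 nm ratio was measured. The reaction ran 30 min at 20–25 °C with final 6.4 nM human GST-Syk, 250 nM biotinylated peptide, 100 μM ATP, pH 7.0 HEPES buffer, 2% DMSO.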

Assay [2] concerns cultured human mast cells. In words: Degranulation inhibition test using cultured human mast cells (IgE cross-linking, β-Hexosaminidase release). The assay is classed as cell-based. The note with it: Mast cell, cultured human mast cells, read-out: human degranulation ave. IC50. The method in brief:
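Degranulation was triggered by anti-hIgE (10 μg/mL final, 30 min, 37 °C) after a 10-min compound pretreatment (DMSO 0.1%) of cord-blood CD34+-derived mast cells primed 5 days with IL-4 and IgE. β-Hexosaminidase in supernatant was measured with p-nitrophenyl-GlcNAc substrate (A405), expressed against water-lysed total; IC50 (M).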

Setting [3] is: Tables 2-x, thiophene compounds B, read-out: sykHTRK ave IC50.
The mark [4] stands for this setting: Tables 2-x, thiophene compounds B.
Where [5] appears, read: Tables 1-x, compounds A, read-out: sykHTRF ave IC50.
Setting [6] is: HTRF, 100 μM ATP, 30 min room temperature, average, read-out: sykHTRF ave IC50.
Setting [7] is: anti-hIgE stimulation, β-Hexosaminidase index, average.

Take `Cc1ccnc(Nc2cccc(-c3ccc(C(O)CCO)s3)n2)c1` (stereo not drawn) [Compound B-54]: the IC50 in assay [1] (setting [3]) and in assay [2] (setting [4]) was 100 to 1000 nM each time.
As for `COc1cc(C(=O)O)ccc1CN(C)c1ncc(-c2cccc(Nc3cc(C)ccn3)n2)s1` [Compound A-606, 3-methoxy-4-[(N-methyl-N-{5-[6-(4-methylpyridin-2-ylamino)pyridin-2-yl]thiazol-2-yl}amino)methyl]benzoic acid dihydrochloride], the IC50 in assay [1] (setting [5]) is < 100 nM; in assay [2] (Tables 1-x, compounds A), 100 to 1000 nM.
Take `CC(=O)Nc1nc(C)c(-c2cncc(Nc3cc(C)ccn3)n2)s1` [Compound A-21, N-{4-methyl-5-[6-(4-methylpyridin-2-ylamino)pyrazin-2-yl]thiazol-2-yl}acetamide]: the results for the IC50 in assay [1] (setting [6]) and in assay [2] (setting [7]) were < 100 nM and 100 to 1000 nM, respectively.
Regarding `Cc1ccnc(Nc2cccc(-c3cnc([C@H](C)N)s3)n2)c1` [Compound A-9, N—((S)-1-{5-[6-(4-methylpyridin-2-ylamino)pyridin-2-yl]thiazol-2-yl}ethyl)amine], the IC50 in assay [1] (setting [6]) and in assay [2] (setting [7]) was 100 to 1000 nM in each case.
For `Cc1ccnc(Nc2cccc(-c3cnc(N(C)CC(=O)NCC(=O)O)s3)n2)c1` [Compound A-571, [2-(N-methyl-N-{5-[6-(4-methylpyridin-2-ylamino)pyridin-2-yl]thiazol-2-yl}amino)acetylamino]acetic acid dihydrochloride], the IC50 in assay [1] (setting [5]) was < 100 nM; in assay [2] (Tables 1-x, compounds A), > 1000 nM.
Consider `Cc1ccnc(Nc2cccc(-c3cnc(CCNC(=O)CO)s3)n2)c1` [Compound A-257], for which the IC50 in assay [1] (setting [6]) and in assay [2] (setting [7]) was 100 to 1000 nM throughout.
For `Cc1ccnc(Nc2cccc(-c3cnc(CNC(=O)CC(=O)O)s3)n2)c1` [Compound A-169], the IC50 was 100 to 1000 nM in assay [1] (setting [6]) and > 1000 nM in assay [2] (setting [7]).
The matching figures for `Cc1ccnc(Nc2cccc(-c3cnc(C4CCN(C(=O)NCCO)CC4)s3)n2)c1` [Compound A-266]: 100 to 1000 nM and 100 to 1000 nM.
Consider `CCC(=NO)c1ccc(-c2cccc(Nc3cc(C)ccn3)n2)s1` [Compound B-51, 1-{5-[6-(4-methylpyridin-2-ylamino)pyridin-2-yl]thiophen-2-yl}propan-1-one oxime], for which the IC50 in assay [1] (setting [3]) was < 100 nM; in assay [2] (setting [4]), > 1000 nM.
On to `Cc1ccnc(Nc2cccc(-c3cnc(C4CCCC(C(=O)O)C4)s3)n2)c1` (stereo not drawn) [Compound A-270], for which the figures for the IC50 in assay [1] (setting [6]) and in assay [2] (setting [7]) were 100 to 1000 nM and > 1000 nM, respectively.
As for `Cc1ccnc(Nc2cccc(-c3cnc(C4CCC(CC(=O)O)CC4)s3)n2)c1` (stereo not drawn) [Compound A-595, (4-{5-[6-(4-methylpyridin-2-ylamino)pyridin-2-yl]thiazol-2-yl}cyclohexyl)acetic acid hydrochloride], the IC50 in assay [1] (setting [5]) is < 100 nM; in assay [2] (Tables 1-x, compounds A) it was 100 to 1000 nM.
On to `CNC(=O)N1CCN(c2ncc(-c3cccc(Nc4cc(C)ccn4)n3)s2)CC1` [Compound A-427, N-methyl-4-{5-[6-(4-methylpyridin-2-ylamino)pyridin-2-yl]thiazol-2-yl}piperazine-1-carboxamide], for which the IC50 in assay [1] (setting [6]) and in assay [2] (setting [7]) was < 100 nM each time.
Regarding `C[C@H](O)c1ncc(-c2cccc(Nc3cc(C4(C)OCCO4)ccn3)n2)s1` [Compound A-335, (S)-1-(5-{6-[4-(2-methyl-[1,3]dioxolan-2-yl)pyridin-2-ylamino]pyridin-2-yl}thiazol-2-yl)ethanol], the figures for the IC50 in assay [1] (setting [6]) and in assay [2] (setting [7]) were < 100 nM and 100 to 1000 nM, respectively.
As for `Cc1ccnc(Nc2cccc(-c3cnc(CN4CCN(CCO)CC4)s3)n2)c1` [Compound A-217], the IC50 was 100 to 1000 nM in assay [1] (setting [6]) and > 1000 nM in assay [2] (setting [7]).
`Cc1ccnc(Nc2cccc(-c3cnc(N4CCN(C=O)CC4)s3)n2)c1` [Compound A-410]: the IC50 in assay [1] (setting [5]) is 100 to 1000 nM; in assay [2] (Tables 1-x, compounds A), < 100 nM.
As for `Cc1ccnc(Nc2cccc(-c3cnc(CNc4ccc(CC(=O)O)cc4)s3)n2)c1` [Compound A-262], the IC50 is 100 to 1000 nM in assay [1] (setting [6]) and > 1000 nM in assay [2] (setting [7]).
Take `Cc1ccnc(Nc2cccc(-c3cnc(CN4CCN(C(=O)CO)CC4)s3)n2)c1` [Compound A-246]: the IC50 in assay [1] (setting [6]) and in assay [2] (setting [7]) was 100 to 1000 nM each time.
As to `Cc1ccnc(Nc2cccc(-c3ccc(CNCCC(=O)O)s3)n2)c1` [Compound B-103], the IC50 in assay [1] (setting [3]) is 100 to 1000 nM; in assay [2] (setting [4]), > 1000 nM.
Regarding `CC1(c2ccnc(Nc3cccc(-c4cnc(N5CCC[C@@H](C(N)=O)C5)s4)n3)c2)OCCO1` [Compound A-565, (R)-1-(5-{6-[4-(2-methyl-[1,3]dioxolan-2-yl)pyridin-2-ylamino]pyridin-2-yl}thiazol-2-yl)piperidine-3-carboxamide], the IC50 in assay [1] (setting [5]) was < 100 nM; in assay [2] (Tables 1-x, compounds A), 100 to 1000 nM.
Take `Cc1ccnc(Nc2cccc(-c3cnc(CCCCCO)s3)n2)c1` [Compound A-70, 5-{5-[6-(4-methylpyridin-2-ylamino)pyridin-2-yl]thiazol-2-yl}pentan-1-ol]: the figures for the IC50 in assay [1] (setting [6]) and in assay [2] (setting [7]) were < 100 nM and 100 to 1000 nM, respectively.
Take `Cc1ccnc(Nc2cccc(-c3cnc(CN4CCN(c5ccc(O)cc5)CC4)s3)n2)c1` [Compound A-382]: the IC50 was 100 to 1000 nM in assay [1] (setting [5]) and 100 to 1000 nM in assay [2] (Tables 1-x, compounds A).
Consider `Cc1ccnc(Nc2cccc(-c3cnc(N4CCC(C(N)=O)CC4)s3)n2)c1` [Compound A-3, 1-{5-[6-(4-methylpyridin-2-ylamino)pyridin-2-yl]thiazol-2-yl}piperidine-4-carboxamide], for which the IC50 in assay [1] (setting [6]) was < 100 nM; in assay [2] (setting [7]) it was 100 to 1000 nM.
With `Cc1ccnc(Nc2cccc(-c3cnc(CN4CCC(O)CC4)s3)n2)c1` [Compound A-152, 1-{5-[6-(4-methylpyridin-2-ylamino)pyridin-2-yl]thiazol-2-ylmethyl}piperidin-4-ol], the IC50 in assay [1] (setting [6]) was < 100 nM; in assay [2] (setting [7]) it was 100 to 1000 nM.
Regarding `Cc1ccnc(Nc2cccc(-c3cnc(C4CCN(C(=O)c5ccc(O)cc5)CC4)s3)n2)c1` [Compound A-378], the IC50 in assay [1] (setting [5]) was in the range of 100 to 1000 nM; in assay [2] (Tables 1-x, compounds A), 100 to 1000 nM.
Consider `CC(=O)c1cc(C)c(-c2cccc(Nc3cc(C)ccn3)n2)s1` [Compound B-6], for which the IC50 in assay [1] (setting [3]) and in assay [2] (setting [4]) was 100 to 1000 nM in each case.
Take `COc1ccnc(Nc2cccc(-c3cnc([C@@H]4CCC(=O)N4)s3)n2)c1` [Compound A-319, (S)-5-{5-[6-(4-methoxypyridin-2-ylamino)pyridin-2-yl]thiazol-2-yl}pyrrolidin-2-one]: the IC50 in assay [1] (setting [6]) was < 100 nM; in assay [2] (setting [7]), 100 to 1000 nM.
Take `COC(=O)N1CCN(c2ncc(-c3cccc(Nc4cc(C)ccn4)n3)s2)CC1` [Compound A-438, methyl 4-{5-[6-(4-methylpyridin-2-ylamino)pyridin-2-yl]thiazol-2-yl}piperazine-1-carboxylic acid methyl ester]: the IC50 in assay [1] (setting [5]) is < 100 nM; in assay [2] (Tables 1-x, compounds A) it was 100 to 1000 nM.
Turning to `CC(=O)c1ccnc(Nc2cccc(-c3cnc(N4CCC[C@@H](C(=O)O)C4)s3)n2)c1` [Compound A-560, (R)-1-{5-[6-(4-acetylpyridin-2-ylamino)pyridin-2-yl]thiazol-2-yl}piperidine-3-carboxylic acid], the IC50 is < 100 nM in assay [1] (setting [5]) and 100 to 1000 nM in assay [2] (Tables 1-x, compounds A).
Regarding `Cc1ccnc(Nc2cccc(-c3ccc(C4=NC(C)(C)CO4)s3)n2)c1` [Compound B-39], the IC50 is 100 to 1000 nM in assay [1] (setting [3]) and > 1000 nM in assay [2] (setting [4]).
The matching figures for `Cc1ccnc(Nc2cccc(-c3sccc3C)n2)c1` [Compound B-5]: 100 to 1000 nM and > 1000 nM.
Turning to `COc1ccc(NCc2ncc(-c3cccc(Nc4cc(C)ccn4)n3)s2)cc1` [Compound A-214], the IC50 in assay [1] (setting [6]) is 100 to 1000 nM; in assay [2] (setting [7]), > 1000 nM.
The matching figures for `Cc1ccnc(Nc2cccc(-c3cnc(COC(=O)NCC4(O)CCCCC4)s3)n2)c1` [Compound A-195]: 100 to 1000 nM and 100 to 1000 nM.
The matching figures for `Cc1ccnc(Nc2cccc(-c3cnc(Cc4ccc(C(=O)O)cc4)s3)n2)c1` [Compound A-224]: 100 to 1000 nM and > 1000 nM.
In the case of `Cc1ccnc(Nc2cccc(-c3cnc(CN(C)C(=O)N(C)C)s3)n2)c1` [Compound A-357], the IC50 in assay [1] (setting [6]) is 100 to 1000 nM; in assay [2] (setting [7]), > 1000 nM.
On to `Cc1ccnc(Nc2cccc(-c3cnc(N(C)CCc4ccc(C(=O)O)cc4)s3)n2)c1` [Compound A-593, 4-[2-(N-methyl-N-{5-[6-(4-methylpyridin-2-ylamino)pyridin-2-yl]thiazol-2-yl}amino)ethyl]benzoic acid dihydrochloride], for which the IC50 in assay [1] (setting [5]) was < 100 nM; in assay [2] (Tables 1-x, compounds A), 100 to 1000 nM.
As for `CC(=O)Nc1nc(C)c(-c2cccc(Nc3cc(C)ccn3)n2)s1` [Compound A-20, N-{4-methyl-5-[6-(4-methylpyridin-2-ylamino)pyridin-2-yl]thiazol-2-yl}acetamide], the results for the IC50 in assay [1] (setting [6]) and in assay [2] (setting [7]) were < 100 nM and 100 to 1000 nM, respectively.
The matching figures for `Cc1ccnc(Nc2cccc(-c3cnc(CN4CCN(S(C)(=O)=O)CC4)s3)n2)c1` [Compound A-198]: 100 to 1000 nM and 100 to 1000 nM.
The matching figures for `CC(=O)NCc1ncc(-c2cccc(Nc3cc(C)ccn3)n2)s1` [Compound A-143]: 100 to 1000 nM and 100 to 1000 nM.
Consider `Cc1ccnc(Nc2cccc(-c3cnc([C@@H]4COC(=O)N4CC(=O)O)s3)n2)c1` [Compound A-407], for which the IC50 was > 1000 nM in assay [1] (setting [5]) and > 1000 nM in assay [2] (Tables 1-x, compounds A).
